Laboratory results as given in ChEMBL document CHEMBL3352120, “Enantioselective induction of SIRT1 gene by syringaresinol from Panax ginseng berry and Acanthopanax senticosus Harms stem” (Bioorg Med Chem Lett, 2015).
Calls of active or inactive are those of the source. The rule behind the calls is not given here.

Experiments:
HUVEC [1] = experiment: Induction of SIRT1 mRNA expression in HUVEC at 5 to 100 uM by quantitative RT-PCR analysis; format: functional, cell-based; details: Homo sapiens
HUVEC [2] = experiment: Induction of SIRT1 mRNA expression in HUVEC at 5 to 100 uM after 24 hrs by luciferase reporter gene assay relative to untreated control; format: functional, cell-based; details: Homo sapiens
HUVEC [3] = experiment: Cytotoxicity against HUVEC assessed as cell viability at 5 to 300 uM after 24 hrs by MTT assay; format: cell-based; details: human
Forkhead box protein O3 [4] = target: T1, Forkhead box protein O3 (Homo sapiens, UniProt O43524); experiment: Induction of FOXO3a binding to SIRT1 in HUVEC at 50 uM after 24 hrs by chromatin immunoprecipitation assay
Forkhead box protein O3 [5] = target: T1, Forkhead box protein O3; experiment: Binding affinity to His-tagged FOXO3a (unknown origin) by SPR analysis
HUVEC [6] = experiment: Induction of SIRT1 mRNA expression in HUVEC by quantitative RT-PCR analysis; format: functional, cell-based; details: Homo sapiens
HUVEC [7] = experiment: Induction of SIRT1 mRNA expression in HUVEC after 24 hrs by luciferase reporter gene assay relative to untreated control; format: functional, cell-based; details: Homo sapiens

T1 sequence (O43524 whole entry): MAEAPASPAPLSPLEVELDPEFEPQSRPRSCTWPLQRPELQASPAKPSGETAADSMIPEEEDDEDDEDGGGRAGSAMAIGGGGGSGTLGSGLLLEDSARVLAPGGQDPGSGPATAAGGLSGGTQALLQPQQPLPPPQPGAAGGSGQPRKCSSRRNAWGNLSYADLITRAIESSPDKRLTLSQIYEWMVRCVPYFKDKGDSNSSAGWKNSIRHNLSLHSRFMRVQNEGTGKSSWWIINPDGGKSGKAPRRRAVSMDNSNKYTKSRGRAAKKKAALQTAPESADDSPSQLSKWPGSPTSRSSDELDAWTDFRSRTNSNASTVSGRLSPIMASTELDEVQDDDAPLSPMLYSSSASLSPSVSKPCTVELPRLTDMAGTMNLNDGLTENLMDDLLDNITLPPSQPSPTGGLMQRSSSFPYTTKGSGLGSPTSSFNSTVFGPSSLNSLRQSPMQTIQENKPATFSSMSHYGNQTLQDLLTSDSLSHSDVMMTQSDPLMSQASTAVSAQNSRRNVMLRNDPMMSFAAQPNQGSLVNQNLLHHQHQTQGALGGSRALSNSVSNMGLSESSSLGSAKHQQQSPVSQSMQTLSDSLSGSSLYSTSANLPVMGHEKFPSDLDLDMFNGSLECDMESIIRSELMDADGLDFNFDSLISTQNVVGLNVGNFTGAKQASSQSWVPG

Activity (HUVEC [2]) | Activity (Forkhead box protein O3 [4]) | Activity (Forkhead box protein O3 [5]) | Activity (HUVEC [7]) | Kd (Forkhead box protein O3 [5]) | Structure (SMILES) | Activity (HUVEC [1]) | Activity (HUVEC [3]) | Activity (HUVEC [6])
inactive | inactive | inactive |  |  | COc1cc([C@@H]2OC[C@@H]3[C@H]2CO[C@H]3c2cc(OC)c(O)c(OC)c2)cc(OC)c1O | inactive | Non-toxic | 
 | Active |  | Dose-dependent effect | 1.73 mM | COc1cc([C@H]2OC[C@H]3[C@@H]2CO[C@@H]3c2cc(OC)c(O)c(OC)c2)cc(OC)c1O [SYRINGARESINOL] |  | Non-toxic | Dose-dependent effect
